The values that follow are results of earlier work, collected in patent publication US10350179B2, “Combination comprising palmitoylethanolamide (PEA) and lycopene for use in the treatment of inflammatory diseases” (Raffaele MIGLIACCIO, priority 2015, dated 2019).

The conditions of the data set: dietary intake, background statement.

On to `CC(C)=CCC/C(C)=C/C=C/C(C)=C/C=C/C(C)=C/C=C/C=C(C)/C=C/C=C(C)/C=C/C=C(\C)CCC=C(C)C` [Lycopene], for which the “Concentration in human plasma” value was 220 to 1060 nM.
